Laboratory results published in paper PMC12508057, “Discovery of ETI41 and ETI60: novel selective endosomal Toll-like receptor inhibitors for the treatment of autoimmune diseases” (Experimental & Molecular Medicine, 2025).
Read-outs that look alike come from different tables or passages of the source.

Tests used:
[1] = MTT assay, cell survival in RAW 264.7; assay type: cell-based; conditions: mouse, RAW 264.7 cell line, read-out: LC50
Protocol: After 24 h, the supernatant was removed, and 500 μg/ml of 3-[4,5-dimethylthiazol-2-yl]-2,5 diphenyl tetrazolium bromide (MTT) solution (Invivogen) was added. After a 3 h incubation, the supernatant was removed, and DMSO was added to dissolve the formazan dye.
One-tailed paired Student’s t-tests were performed using Microsoft Excel (Microsoft). […] The therapeutic index was calculated as […]. Animal experimental results are expressed as mean ± standard deviation and analyzed using SPSS v.20 (IBM SPSS Statistics). Homogeneity of variance was assessed using Levene’s test.
Data are from at least three independent experiments (n = 3) and statistical differences between the induced case and other cases were analyzed and verified using a one-tailed Student’s t-test (*P < 0.05, **P < 0.01, ***P < 0.001).

TLR9 = target: T1, TLR9 (Mus musculus, UniProt Q9EQU3); experiment: TLR9 inhibition, TNF-α secretion (ELISA) in RAW 264.7; assay type: cell-based; conditions: for TLR9 TI value: therapeutic index, RAW 264.7
T1 construct: endogenous in cells; host or cells: RAW 264.7
T1 sequence (Q9EQU3 26-1032): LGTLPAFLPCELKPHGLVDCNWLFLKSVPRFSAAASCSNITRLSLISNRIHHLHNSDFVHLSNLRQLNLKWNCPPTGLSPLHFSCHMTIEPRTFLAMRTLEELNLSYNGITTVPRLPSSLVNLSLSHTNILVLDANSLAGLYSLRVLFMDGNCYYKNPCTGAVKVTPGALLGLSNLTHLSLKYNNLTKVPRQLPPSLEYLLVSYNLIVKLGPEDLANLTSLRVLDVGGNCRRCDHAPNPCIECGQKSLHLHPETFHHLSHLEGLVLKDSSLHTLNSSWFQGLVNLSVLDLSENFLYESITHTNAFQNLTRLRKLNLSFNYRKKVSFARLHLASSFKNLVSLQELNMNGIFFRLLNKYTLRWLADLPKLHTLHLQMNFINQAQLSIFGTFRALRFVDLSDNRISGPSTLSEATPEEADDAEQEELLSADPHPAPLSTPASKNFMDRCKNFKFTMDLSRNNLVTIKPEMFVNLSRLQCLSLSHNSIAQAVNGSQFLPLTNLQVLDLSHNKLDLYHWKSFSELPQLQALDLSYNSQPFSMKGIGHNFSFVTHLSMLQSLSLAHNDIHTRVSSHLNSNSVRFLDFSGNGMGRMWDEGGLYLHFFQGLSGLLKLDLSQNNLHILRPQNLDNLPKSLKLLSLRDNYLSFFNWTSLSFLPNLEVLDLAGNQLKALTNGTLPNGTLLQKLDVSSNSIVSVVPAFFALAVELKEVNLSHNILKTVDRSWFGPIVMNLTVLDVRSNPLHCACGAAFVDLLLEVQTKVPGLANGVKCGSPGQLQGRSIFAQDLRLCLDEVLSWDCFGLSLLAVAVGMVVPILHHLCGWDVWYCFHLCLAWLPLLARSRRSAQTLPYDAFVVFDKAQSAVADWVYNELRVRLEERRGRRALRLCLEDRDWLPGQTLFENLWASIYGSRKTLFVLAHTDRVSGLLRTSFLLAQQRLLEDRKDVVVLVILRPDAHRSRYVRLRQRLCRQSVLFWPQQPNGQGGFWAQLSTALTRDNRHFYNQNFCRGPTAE
Protocol: RAW 264.7 and differentiated THP-1 cells were seeded into 96-well plates at 2 × 10^4 cells per well, while Daudi cells were seeded at 5 × 10^4 cells per well. After stabilization for 30 min, cells were stimulated with specific TLR agonists for 4 or 24 h. Supernatants were diluted and transferred to precoated ELISA plates to measure TNF-α secretion using kits from Invitrogen. Optical absorbance was measured using a BioTek Synergy HTX multimode microplate reader, and data were interpolated using BioTek Gen5 software.
One-tailed paired Student’s t-tests were performed using Microsoft Excel (Microsoft). Semi-logarithmic conversions and nonregression curve analyses for calculating 50% lethal concentration (LC50) and 50% inhibitory concentration (IC50) values were conducted using GraphPad Prism 7.0 (GraphPad). The therapeutic index was calculated as […]. Animal experimental results are expressed as mean ± standard deviation and analyzed using SPSS v.20 (IBM SPSS Statistics). Homogeneity of variance was assessed using Levene’s test.
The cells were activated with agonistic ligands: […], TLR3 (poly I:C, 2 μg/ml, 24 h), TLR4 (LPS, 10 or 100 ng/ml, 4 h), TLR5 (FLA-ST, 500 ng/ml, 4 h), TLR7 (ORN06/LyoVec, 2 μg/ml, 24 h; and IMQ, 1 μg/ml, 4 h), TLR8 (TL8-506, 2 μg/ml, 24 h) and TLR9 (ODN2395, 1 μM, 4 h) at various concentrations in RAW 264.7 cells, human Daudi cells and THP-1 cells. Data are from at least three independent experiments (n = 3) and statistical differences between the induced case and other cases were analyzed and verified using a one-tailed Student’s t-test (*P < 0.05, **P < 0.01, ***P < 0.001).

Row | SMILES | CC50 at 24 h [1] | IC50 (TLR9) | TLR9 TI value (TLR9) | CC50 at 24 h ([1]; RAW 264.7 cells) | IC50 (TLR9; RAW 264.7 cell line, read-out: TLR9 IC50 (mTNFα))
1 | Cc1cc2c(N)c3c(nc2n1CCCN(C)C)CCCCCC3 [ETI41] | 67.2 µM | 0.16 µM | 419.88 |  | 
2 | COc1ccc2c3c(N)c4c(nc3n(CCCN(C)C)c2c1)CCCC4 [ETI60] |  |  | 422.71 | 51.2 µM | 0.12 µM
